SMILES strings stand for the structures. ≈ marks a conversion by molar mass, not a printed value. A value given as a limit tells only on which side of the number the result lay.

Here are results for four compounds from patent US5780604A, “11,12-cyclic phosphite or phosphate derivatives of erythromycin and related macrolides” (Abbott Laboratories, priority 1997, dated 1998).

Data set [1] relates to Staphylococcus aureus 1775. Nature of the data set: In vitro antibacterial activity (MIC), agar dilution. In kind it is cell-based. The following applies: BHI agar, 35°-37° C., 20 to 24 hours; unit assumed. How it is done:
(§1) Representative compounds of the present invention were assayed in vitro for antibacterial activity as follows: Twelve petri dishes containing successive aqueous dilutions of the test compound mixed with 10 mL of sterilized Brain Heart Infusion (BHI) agar (Difco 0418-01-5) were prepared. Each plate was inoculated with 1:100 (or 1:10 for slow-growing strains, such as Micrococcus and Streptococcus) dilutions of up to 32 different microorganisms, using a Steers replicator block. […] In addition, a control plate, using BHI agar containing no test compound, was prepared and incubated at the beginning and end of each test.
(§2) An additional plate containing a compound having known susceptibility patterns for the organisms being tested and belonging to the same antibiotic class as the test compound was also prepared and incubated as a further control, as well as to provide test-to-test comparability.
(§3) After incubation, each plate was visually inspected. The minimum inhibitory concentration (MIC) was defined as the lowest concentration of drug yielding no growth, a slight haze, or sparsely isolated colonies on the inoculum spot as compared to the growth control.
In general terms: In agar dilution the substance is mixed into plates at graded concentrations.

For data set [2], the system named is Streptococcus pyogenes 930. Described as above. In kind it is cell-based. The note with it: BHI agar, 35°-37° C., 20 to 24 hours; unit assumed. On the procedure: as §1, §2, §3
Data set [3] deals with Streptococcus Pheumoniae 5649. Described as above. In kind it is cell-based. The following applies: BHI agar, 35°-37° C., 20 to 24 hours; unit assumed. On the procedure: as §1, §2, §3
The test system of data set [4] is Streptococcus Pheumoniae GYR 1171. The description is as above. The format is cell-based. The following applies: BHI agar, 35°-37° C., 20 to 24 hours; unit assumed. How it is done:
as §1, §2, §3

The next data set has as its system Escherichia coli SS. The data set is described as above. The format is cell-based. The following applies: BHI agar, 35°-37° C., 20 to 24 hours; unit assumed. On the procedure:
as §1, §2, §3

Data set [5] relates to Mycobacterium smegmatis ATCC 114. The data set is described as above. In kind it is cell-based. The following applies: BHI agar, 35°-37° C., 20 to 24 hours; unit assumed. On the procedure: as §1, §2, §3
The next data set relates to Candida albicans CCH 442. Described as above. The format is cell-based. The following applies: BHI agar, 35°-37° C., 20 to 24 hours; unit assumed. On the procedure: as §1, §2, §3
In data set [6] the test system is Staphylococcus aureus A-5278. The data set is described as above. In kind it is cell-based. The note with it: BHI agar, 35°-37° C., 20 to 24 hours; unit assumed. How it is done: as §1, §2, §3
In data set [7] the test system is Nocardia Asteroides ATCC9970. Described as above. The format is cell-based. The following applies: BHI agar, 35°-37° C., 20 to 24 hours; unit assumed. How it is done:
as §1, §2, §3

A further data set has as its system Escherichia coli DC-2. The description is as above. In kind it is cell-based. The note with it: BHI agar, 35°-37° C., 20 to 24 hours; unit assumed. How it is done:
as §1, §2, §3

The subject of a further data set is Escherichia coli JUHL. The data set is described as above. The format is cell-based. The following applies: unit assumed. On the procedure:
as §1, §2, §3

In data set [8] the test system is Streptococcus pyogenes PIU 2548. The format is cell-based. The note with it: BHI agar, 35°-37° C., 20 to 24 hours; unit assumed. How it is done:
as §1, §2, §3

Data set [9] concerns Enterococcus faecium ATCC 8043. The format is cell-based. The following applies: BHI agar, 35°-37° C., 20 to 24 hours; unit assumed. How it is done:
as §1, §2, §3

The test system of data set [10] is Staphylococcus aureus CMX 642A. In kind it is cell-based. The following applies: BHI agar, 35°-37° C., 20 to 24 hours; unit assumed. On the procedure: as §1, §2, §3
Data set [11] has as its system Streptococcus agalactiae CMX 508. In kind it is cell-based. The note with it: BHI agar, 35°-37° C., 20 to 24 hours; unit assumed. On the procedure: as §1, §2, §3
Data set [12] relates to Staphylococcus aureus ATCC 6538P. The format is cell-based. The following applies: BHI agar, 35°-37° C., 20 to 24 hours; unit assumed. On the procedure:
as §1, §2, §3

For data set [13], the system named is Staphylococcus aureus CMX 553. In kind it is cell-based. The following applies: BHI agar, 35°-37° C., 20 to 24 hours; unit assumed. On the procedure: as §1, §2, §3
Data set [14] concerns Streptococcus pyogenes EES61. The format is cell-based. The note with it: BHI agar, 35°-37° C., 20 to 24 hours; unit assumed. How it is done: as §1, §2, §3
The test system of data set [15] is Staphylococcus epidermidis 3519. In kind it is cell-based. The following applies: BHI agar, 35°-37° C., 20 to 24 hours; unit assumed. On the procedure: as §1, §2, §3
Data set [16] relates to Micrococcus luteus ATCC 9341. In kind it is cell-based. The note with it: BHI agar, 35°-37° C., 20 to 24 hours; unit assumed. How it is done: as §1, §2, §3
The subject of data set [17] is Streptococcus bovis A-5169. The format is cell-based. The following applies: BHI agar, 35°-37° C., 20 to 24 hours; unit assumed. How it is done:
as §1, §2, §3

The test system of data set [18] is Micrococcus luteus ATCC 4698. In kind it is cell-based. The following applies: BHI agar, 35°-37° C., 20 to 24 hours; unit assumed. How it is done:
as §1, §2, §3

Data set [19] relates to Staphylococcus aureus A5177. The format is cell-based. The note with it: BHI agar, 35°-37° C., 20 to 24 hours; unit assumed. On the procedure:
as §1, §2, §3

The subject of data set [20] is Staphylococcus aureus NCTC10649M. The format is cell-based. The note with it: BHI agar, 35°-37° C., 20 to 24 hours; unit assumed. On the procedure: as §1, §2, §3
Data set [21] relates to Haemophilis Influenzae DILL AMP R. The format is cell-based. The note with it: BHI agar, 35°-37° C., 20 to 24 hours; unit assumed. On the procedure: as §1, §2, §3
For another data set, the system named is Gram-negative bacteria. The following applies: background statement; cited from earlier work.
Data set [22] concerns gram-positive bacteria, mycoplasmas. The note with it: background statement, U.S. Pat. No. 4,331,803; cited from earlier work.
For data set [23] the following is noted: background statement; cited from earlier work.
Setting [24] is: BHI agar, 35°-37° C., 20 to 24 hours.

With `CCOP1O[C@@H]2[C@@H](C)C(=O)[C@H](C)C[C@@](C)(OC)[C@H](O[C@@H]3O[C@H](C)C[C@H](N(C)C)[C@H]3O)[C@@H](C)C(=O)[C@@H](C)C(=O)O[C@H](CC)[C@@]2(C)O1` (some centres unmarked) [Example 5], the MIC in data set [1] was above 100 µg/mL; in data set [2], above 100 µg/mL; in [3], 16 µg/mL (≈ 24.2 µM); in data set [4], 4 µg/mL (≈ 6.04 µM); with Escherichia coli SS, 50 µg/mL (≈ 75.6 µM); in data set [5], 100 µg/mL (≈ 151 µM). Further, the MIC was above 100 µg/mL against Candida albicans CCH 442; above 100 µg/mL in data set [6]; 12.5 µg/mL (≈ 18.9 µM) in data set [7]; above 100 µg/mL against Escherichia coli DC-2; above 100 µg/mL with Escherichia coli JUHL (setting [24]); 12.5 µg/mL (≈ 18.9 µM) in data set [8]. Moreover, the MIC in data set [9] came to 25 µg/mL (≈ 37.8 µM); in [10], 50 µg/mL (≈ 75.6 µM); in [11] it was 12.5 µg/mL (≈ 18.9 µM); in [12] it was 25 µg/mL (≈ 37.8 µM); in data set [13], 50 µg/mL (≈ 75.6 µM); in [14], 12.5 µg/mL (≈ 18.9 µM). Also, the MIC is 25 µg/mL (≈ 37.8 µM) in data set [15]; 25 µg/mL (≈ 37.8 µM) in data set [16]; 12.5 µg/mL (≈ 18.9 µM) in data set [17]; 50 µg/mL (≈ 75.6 µM) in [18]; 25 µg/mL (≈ 37.8 µM) in [19]; 25 µg/mL (≈ 37.8 µM) in data set [20]. The compound further gave an MIC in [21] above 128 µg/mL.

For `CC[C@H]1OC(=O)[C@H](C)C(=O)[C@H](C)[C@@H](O[C@@H]2O[C@H](C)C[C@H](N(C)C)[C@H]2O)[C@](C)(OC)C[C@@H](C)C(=O)[C@H](C)[C@H]2OP(OC)O[C@@]21C` (some centres unmarked) [Example 3], the MIC in data set [1] was above 100 µg/mL; in [2] it was above 100 µg/mL; in data set [3], 16 µg/mL (≈ 24.7 µM); in data set [4] it was 8 µg/mL (≈ 12.4 µM); against Escherichia coli SS it was 50 µg/mL (≈ 77.2 µM); in data set [5] it was 100 µg/mL (≈ 154 µM). For the same compound, the MIC with Candida albicans CCH 442 was above 100 µg/mL; in data set [6], above 100 µg/mL; in [7], 12.5 µg/mL (≈ 19.3 µM); in the data set with Escherichia coli DC-2, above 100 µg/mL; against Escherichia coli JUHL (setting [24]), above 100 µg/mL; in data set [8], 12.5 µg/mL (≈ 19.3 µM). The MIC in data set [9] stood at 25 µg/mL (≈ 38.6 µM); in [10] it was 25 µg/mL (≈ 38.6 µM); in data set [11], 12.5 µg/mL (≈ 19.3 µM); in data set [12], 25 µg/mL (≈ 38.6 µM); in data set [13], 50 µg/mL (≈ 77.2 µM); in data set [14] it was 12.5 µg/mL (≈ 19.3 µM). Further, the MIC in [15] worked out at 25 µg/mL (≈ 38.6 µM); in data set [16], 25 µg/mL (≈ 38.6 µM); in data set [17] it was 12.5 µg/mL (≈ 19.3 µM); in data set [18], 25 µg/mL (≈ 38.6 µM); in data set [19], 25 µg/mL (≈ 38.6 µM); in data set [20] it was 25 µg/mL (≈ 38.6 µM). The compound further returned an MIC in data set [21] above 128 µg/mL.

With `CC[C@H]1OC(=O)[C@H](C)[C@@H](O[C@H]2C[C@@](C)(OC)[C@@H](O)[C@H](C)O2)[C@H](C)[C@@H](O[C@@H]2O[C@H](C)C[C@H](N(C)C)[C@H]2O)[C@](C)(O)C[C@@H](C)C(=O)[C@H](C)[C@@H](O)[C@]1(C)O` [Ery. A, Erythromycin A], the MIC is above 100 µg/mL with Escherichia coli JUHL and 4 µg/mL (≈ 5.45 µM) in data set [21]. In addition, the “activity against Gram-negative bacteria” value with Gram-negative bacteria is reported as “only weak activity”.

For the compound `CC[C@H]1OC(=O)[C@H](C)[C@@H](O[C@H]2C[C@@](C)(OC)[C@@H](O)[C@H](C)O2)[C@H](C)[C@@H](O[C@@H]2O[C@H](C)C[C@H](N(C)C)[C@H]2O)[C@](C)(OC)C[C@@H](C)C(=O)[C@H](C)[C@@H](O)[C@]1(C)O` [6-O-methyl erythromycin A], the “antibacterial activity against many gram-positive bacteria, mycoplasmas, etc.” value in [22] is “desirable antibacterial activity”. Moreover, in [23], the acid stability entry is on record as “poor acid stability”. In the data set on Gram-negative bacteria, the “activity against Gram-negative bacteria” value is recorded as “only weak antimicrobial activity”.
